Earlier results in patent US20050176827A1, “Compositions and methods for glycogen synthesis” (priority 2002, published 2005).

Test system: pancreatic beta cell
Conditions: micromolar concentrations; direct effect on pancreatic beta cell, glucose dependent

CC(O)C(C)C(N)C(=O)O (stereo not shown) [4-hydroxyisoleucine]
effect on glucose-induced insulin secretion: stimulate glucose-induced insulin secretion
